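GI50 marks 50% less growth. TGI: concentration producing complete growth inhibition.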
Tests used:
Assay in all cases: growth of human tumour cells (NCI), 384-well format
786-0 renal = tested on: 786-0 renal
A498 renal = tested on: A498 renal
A549 NSCLC = tested on: A549 NSCLC
ACHN renal = tested on: ACHN renal
BT-549 breast = tested on: BT-549 breast
CAKI-1 renal = tested on: CAKI-1 renal
CCRF-CEM leukemia = tested on: CCRF-CEM leukemia
COLO 205 colon = tested on: COLO 205 colon
DU-145 prostate = tested on: DU-145 prostate
EKVX NSCLC = tested on: EKVX NSCLC
HCC-2998 colon = tested on: HCC-2998 colon
HCT-116 colon = tested on: HCT-116 colon
HCT-15 colon = tested on: HCT-15 colon
HL-60(TB) leukemia = tested on: HL-60(TB) leukemia
HOP-62 NSCLC = tested on: HOP-62 NSCLC
HOP-92 NSCLC = tested on: HOP-92 NSCLC
HS 578T breast = tested on: HS 578T breast
HT29 colon = tested on: HT29 colon
IGROV1 ovarian = tested on: IGROV1 ovarian
K-562 leukemia = tested on: K-562 leukemia
KM12 colon = tested on: KM12 colon
LOX IMVI melanoma = tested on: LOX IMVI melanoma
M14 melanoma = tested on: M14 melanoma
MALME-3M melanoma = tested on: MALME-3M melanoma
MCF7 breast = tested on: MCF7 breast
MDA-MB-231 breast = tested on: MDA-MB-231 breast
MDA-MB-435 melanoma = tested on: MDA-MB-435 melanoma
MDA-MB-468 breast = tested on: MDA-MB-468 breast
MOLT-4 leukemia = tested on: MOLT-4 leukemia
NCI-H226 lung = tested on: NCI-H226 lung
NCI-H23 lung = tested on: NCI-H23 lung
NCI-H322M lung = tested on: NCI-H322M lung
NCI-H460 NSCLC = tested on: NCI-H460 NSCLC
NCI-H522 lung = tested on: NCI-H522 lung
NCI/ADR-RES ovarian = tested on: NCI/ADR-RES ovarian
OVCAR-3 ovarian = tested on: OVCAR-3 ovarian
OVCAR-4 ovarian = tested on: OVCAR-4 ovarian
OVCAR-5 ovarian = tested on: OVCAR-5 ovarian
OVCAR-8 ovarian = tested on: OVCAR-8 ovarian
PC-3 prostate = tested on: PC-3 prostate
RPMI-8226 leukemia = tested on: RPMI-8226 leukemia
RXF 393 renal = tested on: RXF 393 renal
SF-268 CNS = tested on: SF-268 CNS
SF-295 CNS = tested on: SF-295 CNS
SF-539 CNS = tested on: SF-539 CNS
SK-MEL-2 melanoma = tested on: SK-MEL-2 melanoma
SK-MEL-28 melanoma = tested on: SK-MEL-28 melanoma
SK-MEL-5 melanoma = tested on: SK-MEL-5 melanoma
SK-OV-3 ovarian = tested on: SK-OV-3 ovarian
SN12C renal = tested on: SN12C renal
SNB-19 CNS = tested on: SNB-19 CNS
SW-620 colon = tested on: SW-620 colon
T-47D breast = tested on: T-47D breast
TK-10 renal = tested on: TK-10 renal
U251 glioblastoma = tested on: U251 glioblastoma
UACC-257 melanoma = tested on: UACC-257 melanoma
UACC-62 melanoma = tested on: UACC-62 melanoma
UO-31 renal = tested on: UO-31 renal

Cc1noc(C)c1-c1cnc2c(-c3ccc(C(=O)O)cc3)cn([C@@H](C)c3ccccn3)c2c1
GI50 ([…]-0 renal): 147 nM
TGI (786-0 renal): 9250 nM
GI50 (A498 renal): 283 nM
TGI (A498 renal): 2830 nM
GI50 (A549 NSCLC): 755 nM
TGI (A549 NSCLC): > 100000 nM
GI50 (ACHN renal): 627 nM
TGI (ACHN renal): 14900 nM
GI50 (BT-549 breast): 60.1 nM
TGI (BT-549 breast): 761 nM
TGI (CAKI-1 renal): 3460 nM
GI50 (CCRF-CEM leukemia): 75.8 nM
TGI (CCRF-CEM leukemia): 2790 nM
GI50 (COLO 205 colon): 418 nM
TGI (COLO 205 colon): 6010 nM
GI50 (DU-145 prostate): 2400 nM
TGI (DU-145 prostate): > 100000 nM
GI50 (EKVX NSCLC): 2950 nM
TGI (EKVX NSCLC): > 100000 nM
GI50 (HCC-2998 colon): 117 nM
TGI (HCC-2998 colon): 1050 nM
GI50 (HCT-116 colon): 552 nM
TGI (HCT-116 colon): 23100 nM
GI50 (HCT-15 colon): 205 nM
TGI (HCT-15 colon): 10800 nM
GI50 (HL-60(TB) leukemia): 16.1 nM
TGI (HL-60(TB) leukemia): 142 nM
GI50 (HOP-62 NSCLC): 228 nM
TGI (HOP-62 NSCLC): 9580 nM
GI50 (HOP-92 NSCLC): 188 nM
TGI (HOP-92 NSCLC): 39400 nM
GI50 (HS 578T breast): 51.4 nM
TGI (HS 578T breast): 1280 nM
GI50 (HT29 colon): 301 nM
TGI (HT29 colon): > 100000 nM
GI50 (IGROV1 ovarian): 78.7 nM
TGI (IGROV1 ovarian): 1980 nM
GI50 (K-562 leukemia): 173 nM
TGI (K-562 leukemia): > 100000 nM
GI50 (KM12 colon): 579 nM
TGI (KM12 colon): 19300 nM
GI50 (LOX IMVI melanoma): 144 nM
TGI (LOX IMVI melanoma): 381 nM
GI50 (M14 melanoma): 209 nM
TGI (M14 melanoma): 51900 nM
TGI (MALME-3M melanoma): 1730 nM
GI50 (MCF7 breast): 15.9 nM
TGI (MCF7 breast): 3130 nM
GI50 (MDA-MB-231 breast): 123 nM
TGI (MDA-MB-231 breast): 23800 nM
GI50 (MDA-MB-435 melanoma): 805 nM
TGI (MDA-MB-435 melanoma): > 100000 nM
GI50 (MDA-MB-468 breast): 72.1 nM
TGI (MDA-MB-468 breast): 919 nM
GI50 (MOLT-4 leukemia): 103 nM
TGI (MOLT-4 leukemia): 1470 nM
GI50 (NCI-H226 lung): 406 nM
TGI (NCI-H226 lung): 7350 nM
GI50 (NCI-H23 lung): 366 nM
TGI (NCI-H23 lung): 6370 nM
GI50 (NCI-H322M lung): 619 nM
TGI (NCI-H322M lung): 58400 nM
GI50 (NCI-H460 NSCLC): 3170 nM
TGI (NCI-H460 NSCLC): > 100000 nM
GI50 (NCI-H522 lung): 15 nM
TGI (NCI-H522 lung): 391 nM
GI50 (NCI/ADR-RES ovarian): 1180 nM
TGI (NCI/ADR-RES ovarian): 17200 nM
GI50 (OVCAR-3 ovarian): 116 nM
TGI (OVCAR-3 ovarian): 10300 nM
GI50 (OVCAR-4 ovarian): 167 nM
TGI (OVCAR-4 ovarian): 739 nM
GI50 (OVCAR-5 ovarian): 525 nM
TGI (OVCAR-5 ovarian): 27400 nM
GI50 (OVCAR-8 ovarian): 234 nM
TGI (OVCAR-8 ovarian): 2390 nM
GI50 (PC-3 prostate): 467 nM
TGI (PC-3 prostate): > 100000 nM
GI50 (RPMI-8226 leukemia): 12 nM
TGI (RPMI-8226 leukemia): 152 nM
GI50 (RXF 393 renal): 254 nM
TGI (RXF 393 renal): 1290 nM
GI50 (SF-268 CNS): 1470 nM
TGI (SF-268 CNS): 27000 nM
GI50 (SF-295 CNS): 1460 nM
TGI (SF-295 CNS): 28900 nM
GI50 (SF-539 CNS): 292 nM
TGI (SF-539 CNS): 1680 nM
GI50 (SK-MEL-2 melanoma): 46.4 nM
TGI (SK-MEL-2 melanoma): 14000 nM
GI50 (SK-MEL-28 melanoma): 699 nM
TGI (SK-MEL-28 melanoma): > 100000 nM
GI50 (SK-MEL-5 melanoma): 61.6 nM
TGI (SK-MEL-5 melanoma): 3080 nM
GI50 (SK-OV-3 ovarian): 445 nM
TGI (SK-OV-3 ovarian): 9820 nM
GI50 (SN12C renal): 1040 nM
TGI (SN12C renal): > 100000 nM
GI50 (SNB-19 CNS): 554 nM
TGI (SNB-19 CNS): > 100000 nM
GI50 (SW-620 colon): 4750 nM
TGI (SW-620 colon): 73900 nM
GI50 (T-47D breast): 201 nM
TGI (T-47D breast): 3310 nM
GI50 (TK-10 renal): 34.3 nM
TGI (TK-10 renal): 989 nM
GI50 (U251 glioblastoma): 1770 nM
TGI (U251 glioblastoma): 30100 nM
GI50 (UACC-257 melanoma): 219 nM
TGI (UACC-257 melanoma): 9840 nM
GI50 (UACC-62 melanoma): 37.8 nM
TGI (UACC-62 melanoma): 1270 nM
GI50 (UO-31 renal): 323 nM
TGI (UO-31 renal): 13400 nM

Reference: PubChem BioAssay (NCI)
